By MIC is commonly meant the least concentration at which growth counts as inhibited. The low end stands for a more susceptible organism, the high end for a less susceptible organism. Broadly, the MIC50 is the lowest concentration that inhibits either 50% of growth or 50% of the strains tested, depending on the study. One may read the MIC90 as the lowest concentration that inhibits either 90% of growth or 90% of the strains tested, depending on the study.

Data on five molecules can be found in ChEMBL document CHEMBL1128323, “Antifungal agents. 9. 3-Aryl-4-[alpha-(1H-imidazol-1-yl)arylmethyl]pyrroles: a new class of potent anti-Candida agents” (1995).

What all share (type): functional
Assay [1] relates to Candida albicans. In words: Percent resistance against Candida albicans (40 clinical isolates) at 256 micro g/mL (pH=5.8), activity is expressed as R%.
Assay [2] has as its system Candida albicans. Description: Resistance against Candida. albicans (40 clinical isolates) at 256 ug/mL (pH=7.2), activity is expressed as R%.
For assay [3], the system named is Candida albicans. In words: Inhibitory activity against Candida albicans (40 clinical isolates), determined at pH-5.8.
The test system of assay [4] is Candida albicans. Description: Inhibitory activity against Candida albicans (40 clinical isolates), determined at pH-7.2.
Assay [5] has as its system Candida. Description: Inhibitory activity against Candida. species. (40 clinical isolates), determined at pH-5.8.
The subject of assay [6] is Candida. Description: Inhibitory activity against Candida. species. (40 clinical isolates), determined at pH-7.2.
Assay [7] concerns Candida. Description: Inhibitory activity against Candida. species (40 clinical isolates), determined at pH-5.8.
The test system of assay [8] is Candida. In words: 50% inhibitory activity against the Candida. species (40 clinical isolates) was determined at pH-7.2.
Assay [9] relates to Candida. Description: 90% inhibitory activity against Candida. species (40 clinical isolates) determined at pH-7.2.
Assay [10] has as its system Candida. Description: Resistance against all Candida. species (40 clinical isolates) at 256 micro g/mL (pH=5.8). Activity is expressed as R%.
For assay [11], the system named is Candida. In words: Percent resistance against all Candida. species (40 clinical isolates) at 256 micro g/mL (pH=7.2), activity is expressed as R%.
The test system of assay [12] is Candida albicans. Description: Inhibitory activity against the Candida albicans (40 clinical isolates), determined at pH-5.8.
Assay [13] relates to Candida albicans. Description: Inhibitory activity against the Candida albicans (40 clinical isolates), determined at pH-7.2.
In assay [14] the test system is Candida albicans. Description: 50% inhibitory activity against Candida albicans (40 clinical isolates) determined at pH-5.8.
Assay [15] deals with Candida albicans. In words: 50% inhibitory activity against Candida albicans (40 clinical isolates) determined at pH-7.2. The settings on record: Candida albicans; read-out: MIC50.

Structures are written as SMILES. Converted amounts (≈) assume the structure as drawn. A value given as a limit tells only on which side of the number the result lay.

In the case of `Clc1ccc(-c2c[nH]cc2C(c2ccc(-n3cccc3)cc2)n2ccnc2)cc1` (stereo not given), the R came to 16% with Candida albicans [1], 20% in the assay on Candida albicans [2], 40% in the assay with Candida [10] and 50% with Candida [11]. Also, the minimum inhibitory concentration (MIC) with Candida albicans [3] was above 119 µg/mL; in the assay on Candida albicans [4], above 121 µg/mL; against Candida [5], above 156 µg/mL; against Candida [6] it was above 229 µg/mL. Besides, the MIC50 against Candida [7] is 64 µg/mL (≈ 160 µM); against Candida [8], 256 µg/mL (≈ 642 µM); in the assay on Candida albicans [14], 64 µg/mL (≈ 160 µM); in the assay on Candida albicans [15] it was 64 µg/mL (≈ 160 µM). The MIC90 in the assay on Candida [7] is above 256 µg/mL; with Candida [9] it was 256 µg/mL (≈ 642 µM); in the assay on Candida albicans [12] it was 256 µg/mL (≈ 642 µM); in the assay on Candida albicans [13], 256 µg/mL (≈ 642 µM).
As for `Clc1ccc(C(c2c[nH]cc2-c2ccc(Cl)cc2Cl)n2ccnc2)cc1` (stereo not given), the R turned out to be 0% with Candida albicans [1], 5% with Candida albicans [2], 0% with Candida [10] and 40% in the assay on Candida [11]. The MIC against Candida albicans [3] is above 6.8 µg/mL; with Candida albicans [4], above 66.4 µg/mL; in the assay with Candida [5], 13.7 µg/mL (≈ 34 µM); in the assay on Candida [6], above 212 µg/mL. The MIC50 in the assay on Candida [7] is 16 µg/mL (≈ 39.7 µM); with Candida [8] it was 64 µg/mL (≈ 159 µM); against Candida albicans [14], 4 µg/mL (≈ 9.93 µM); in the assay with Candida albicans [15], 8 µg/mL (≈ 19.9 µM). Moreover, the MIC90 in the assay on Candida [7] is 16 µg/mL (≈ 39.7 µM); in the assay on Candida [9], above 256 µg/mL; against Candida albicans [12], 256 µg/mL (≈ 636 µM); in the assay with Candida albicans [13], 256 µg/mL (≈ 636 µM).
As for `Nc1ccc(C(c2c[nH]cc2-c2ccc(Cl)cc2)n2ccnc2)cc1` (stereo not given), the R in the assay on Candida albicans [1], with Candida albicans [2], with Candida [10] and in the assay with Candida [11] was 0% throughout. Further, the MIC was 42.8 µg/mL (≈ 123 µM) against Candida albicans [3], 98.2 µg/mL (≈ 282 µM) with Candida albicans [4], 82.5 µg/mL (≈ 237 µM) against Candida [5] and 184 µg/mL (≈ 527 µM) against Candida [6]. In addition, the MIC50 turned out to be 82.5 µg/mL (≈ 237 µM) in the assay on Candida [7], 128 µg/mL (≈ 367 µM) with Candida [8], 32 µg/mL (≈ 91.7 µM) in the assay with Candida albicans [14] and 64 µg/mL (≈ 183 µM) in the assay with Candida albicans [15]. In addition, the MIC90 amounted to 82.5 µg/mL (≈ 237 µM) with Candida [7], 128 µg/mL (≈ 367 µM) against Candida [9], 128 µg/mL (≈ 367 µM) in the assay with Candida albicans [12] and 128 µg/mL (≈ 367 µM) in the assay on Candida albicans [13].
`Clc1ccc(-c2c[nH]cc2C(c2ccc(-n3cccc3)cc2)n2ccnc2)c(Cl)c1` (stereo not given): the R in the assay with Candida albicans [1] stood at 0%; in the assay on Candida albicans [2], 100%; with Candida [10] it was 0%; with Candida [11], 100%. In addition, the MIC with Candida albicans [3] is 33.7 µg/mL (≈ 77.8 µM); in the assay on Candida albicans [4] it was above 256 µg/mL; with Candida [5] it was 19.5 µg/mL (≈ 45 µM); in the assay on Candida [6], above 256 µg/mL. Also, the MIC50 was 16 µg/mL (≈ 36.9 µM) against Candida [7], above 256 µg/mL against Candida [8], 16 µg/mL (≈ 36.9 µM) against Candida albicans [14] and above 256 µg/mL in the assay on Candida albicans [15]. The MIC90 in the assay on Candida [7] is 32 µg/mL (≈ 73.8 µM); with Candida [9], above 256 µg/mL; against Candida albicans [12], 64 µg/mL (≈ 148 µM); in the assay with Candida albicans [13], above 256 µg/mL.
For the molecule `Cc1ccc(C(c2c[nH]cc2-c2ccc(Cl)c(Cl)c2)n2ccnc2)cc1` (stereo not given), the R in the assay with Candida albicans [1], in the assay with Candida albicans [2], with Candida [10] and in the assay on Candida [11] was 0% throughout. For the same molecule, the MIC with Candida albicans [3] is 7.9 µg/mL (≈ 20.7 µM); against Candida albicans [4] it was 5.8 µg/mL (≈ 15.2 µM); in the assay on Candida [5], 14.2 µg/mL (≈ 37.1 µM); in the assay with Candida [6], 17.5 µg/mL (≈ 45.8 µM). For the same molecule, the MIC50 was found to be 16 µg/mL (≈ 41.9 µM) against Candida [7], 16 µg/mL (≈ 41.9 µM) against Candida [8], 4 µg/mL (≈ 10.5 µM) against Candida albicans [14] and 4 µg/mL (≈ 10.5 µM) in the assay with Candida albicans [15]. The MIC90 in the assay with Candida [7] worked out at 16 µg/mL (≈ 41.9 µM); against Candida [9] it was 32 µg/mL (≈ 83.7 µM); in the assay on Candida albicans [12] it was 16 µg/mL (≈ 41.9 µM); with Candida albicans [13], 16 µg/mL (≈ 41.9 µM).
